Test [1] concerns 5XFAD mice. The experiment in a line: Whole-body dual-energy X-ray absorptiometry (DXA) in 5XFAD mice. The format is in vivo, mouse. Conditions: intranasal, 8 weeks (combination 4 + 4 weeks). The protocol: Bone loss often accelerates with neurodegenerative diseases and during aging. Protecting from bone loss would be complementary to treatments for neurodegenerative diseases. Body composition analyses were measured by dual-energy X-ray absorptiometry (DXA; Kubtec Digimus, KUB Technologies, Stratford, CT, USA). Bone area (cm2), Bone mineral content (BMC, grams) and bone mineral density (BMD, g/cm2) were calculated for the whole body (FIGS. 11A-11C) using the manufacturer's analysis software (Kubtec Digimus). […] Increasing bone density in patients with neurodegenerative diseases, would decrease risk of fracture and increase the quality of life.

The subject of test [2] is GM2S. The experiment in a line: GM2S gene expression in PD mouse brain. The format is in vivo. As to conditions: intranasal 5 mg/kg/day for 28 days. The protocol: (§1) The acquisition, care, and experimental treatment of animals used in this study were in compliance with the NIH guidelines as published in the Guide for the Care and Use of Laboratory Animals. Gangliosides (GD3 or GM1; 5 mg/kg/day) were infused intranasally (Hanson, et al., J. Vis. Exp. (74) (2013) doi.org/10.3791/4440.) with a small pipette (each […] into the right and left nares twice, or […] per day) into 8-month-old WT (C57B6/J), A53T PD, and GM2S-KO mice daily for 7-28 days. GD3 and GM1 used in this study were isolated from either bovine buttermilk or brains by established procedures (Ariga, et al., J. Biol. Chem. 269, 2667-2675 (1994), Ledeen and Yu, Methods Enzymol. 83, 139-191 (1982), Ren, et al., J. Biol. Chem. 267, 12632-12638 (1992)). Gangliosides, being amphipathic, were easily dissolved in saline. The placebo group received saline infusions. At first, to provide direct evidence for ganglioside administration into brain, mice totally deficient in GM1 (8-month-old GM2S-KO mice) were intranasally administered GM1 (0.5 or 5 mg/kg/day) for 7 days. Brain-delivered GM1 was analyzed by immunohistochemistry and TLC. After confirmation that ganglioside reached the brain of GM2S-KO mice by the intranasal route, 8-month-old A53T PD mice were utilized for ganglioside treatments (28 days). […]

The test system of test [3] is Neuro 2a cells. The experiment in a line: TH mRNA expression in Neuro 2a cells (qPCR). The format is cell-based, mouse. As to conditions: 5 mM ganglioside, 24 h. The protocol:
(§2) Mouse Neuro-2a neuroblastoma cells (ATCC, Manassas, VA, USA, CCL-131) were maintained in Dulbecco's modified Eagle's medium supplemented with 10% fetal bovine serum, 2 mM glutamine, and penicillin/streptomycin at 37° C., 5% CO2.
Total RNA samples were isolated from substantia nigra of mouse brains or cultured Neuro 2a cells using TRIzol reagent (Life Technologies from Thermo Fisher Scientific). Neuro 2a cells were untreated or treated with 5 mM GD3 or GM1 in B27-supplemented Neuro-basal-A medium for 24 h. cDNAs were synthesized based on the total RNAs as templates using MultiScribe reverse transcriptase (Applied Biosystems, Waltham, MA, USA). qPCR was performed with run RT2 SYBR Green qPCR master mix (QIAGEN, Hilden, Germany) on the CFX96 system (Bio-Rad, Hercules, CA, USA). The relative expression levels of TH were normalized to the actin transcript level. The normalized value from control (WT+saline, or no treated cells) is defined as 1.0. The following primers were used: TH forward, 5′-CACTATGCCCACCCCCAG-3′ (SEQ ID NO:1), reverse: 5′-CGCCGTCCAATGAACCTT-3′ (SEQ ID NO:2); actin forward, 5′-[…]-3′ (SEQ ID NO:3), reverse, 5′-[…]-3′ (SEQ ID NO:4).

Test [4] deals with 5XFAD mice. The experiment in a line: Novel object recognition test in 5XFAD mice. The format is in vivo, mouse. As to conditions: intranasal 5 mg/kg/day for 8 weeks (combination: GD3 4 weeks, GM1 4 weeks), 2-month-old 5XFAD mice, n=3. As to the method:
FIGS. 9A and 9B illustrate the memory function of intranasal ganglioside treatments. FIG. 9A is a schematic diagram showing the experimental procedure of novel object recognition test. […] Each mouse was placed in an arena, with two identical objects placed at each end of the arena. After 5 min of investigation, mice were returned to their home cage. 24 hours later, one test object was replaced with a novel object, and animals were allowed 5 min for investigation. The time spent exploring each object was recorded. Percentages of exploration time of novel object (memory) are shown in the columns (n=3).
Gangliosides (5 mg/kg/day), GD3, GM1, or GD3-GM1 (GD3 for 4 weeks and GM1 for 4 week) were administered into 2-month-old 5XFAD mice for 8 weeks. To assess the effect of intranasal ganglioside treatment on cognitive function, mice were tested using the novel object recognition test (FIG. 9A). […] These findings indicate that intranasal ganglioside has an important role to enhance hippocampal-dependent learning and memory.

The test system of test [5] is tyrosine hydroxylase (TH). The experiment in a line: TH expression at substantia nigra in PD mouse brain. As to conditions: intranasal 5 mg/kg/day for 28 days. The format is in vivo. As to the method: as §1
Test [6] relates to 5XFAD mouse brain. As to conditions: icv 5 mg/kg/day for 7 days; cited from earlier work.
Test [7] relates to TH. The experiment in a line: TH expression in substantia nigra of GM2S-KO mouse. The format is in vivo. As to conditions: intranasal 5 mg/kg/day for 28 days, 8 months old GM2S-KO mouse. As to the method:
as §1

Test [8] deals with 5XFAD mice. The experiment in a line: Buried pellet test (olfactory function) in 5XFAD mice. The format is in vivo, mouse. As to conditions: intranasal 5 mg/kg/day for 8 weeks (combination: GD3 4 weeks, GM1 4 weeks), n=3. The protocol: To detect olfaction deficiency, the buried pellet test was assessed (FIG. 10A). Bedding tips were set to 3 cm height. The time until mice uncover the food pellet was measured. […] It is believed that GD3 maintains stemness and inhibits further neuronal differentiation such as olfactory neurons. […] The buried pellet test, which relies on the animal's natural tendency to use olfactory cues for foraging, is used to confirm ability to smell (FIG. 10A). The time until mice uncover the food pellet in bedding tips was measured. […] Thus, GD3 has important role in olfactory function (FIG. 12).

The subject of test [9] is Nurr1. The experiment in a line: Expression and nuclear localization of Nurr1 in substantia nigra pars compacta of A53T PD mouse. Conditions: intranasal 5 mg/kg/day for 28 days. The format is in vivo. The protocol:
as §1

The test system of test [10] is TH gene promoter. The experiment in a line: ChIP assay on TH gene promoter in Neuro 2a cells. The format is cell-based, mouse. Conditions: 5 mM ganglioside, 24 h. The protocol: as §2
ChIP assays were performed on cell lysates as previously described.31,32,76 Briefly, Neuro 2a cells, untreated or treated with 5 mM GD3 or GM1 for 24 h, were incubated in 1% PFA for 10 min at ambient temperature to crosslink the interacting partners. Cells with the cross-linked complexes were subjected to lysis by sonication with six 20-s pulses at the power scale 7 controlled by a sonicator (Sonic dismembrator model 100, Fisher Scientific). After centrifugation at 15,000×g for 10 min, the supernatants were collected for the following experiments. Immunoprecipitation was carried out with the following specific antibodies bound on protein G-conjugated magnetic beads (Millipore): anti-acetylated histone H3 (Millipore), anti-Nurr1 (R&D Systems), or anti-PITX3 (Thermo Fisher Scientific) antibodies. The amounts of the co-precipitated DNA fragments of TH promoter (+0), the Nurr1 binding site on the TH promoter (TH-NBS), and the PITX3 binding site on TH promoter (TH-PBS) were analyzed by qPCR. After normalization against GAPDH, the value of no treated cells was defined as 1.0. The following primers were used: TH forward, 5′-[…]-3′ (SEQ ID NO:5), reverse, 5′-[…]-3′ (SEQ ID NO:6); TH NBS forward, 5′-[…]-3′ (SEQ ID NO:7), reverse, 5′-[…]-3′ (SEQ ID NO:8); TH PBS forward, 5′-[…]-3′ (SEQ ID NO:9), reverse, 5′-[…]-3′ (SEQ ID NO:10); GAPDH forward, 5′-[…]-3′ (SEQ ID NO:11), reverse, 5′-TCAGTTCGGAG CCCACACGC-3′ (SEQ ID NO:12).

Test [11] has as its system VDAC1. The experiment in a line: VDAC1 expression in PD mouse brain. As to conditions: intranasal 5 mg/kg/day for 28 days. The format is in vivo. The protocol:
as §1

Test [12] addresses T1, aSyn (Homo sapiens, UniProt P37840, A53T).
T1 construct: tissue The Jackson Laboratory 006823; host or cells: brain / substantia nigra of A53T PD transgenic mice
The experiment in a line: aSyn levels in A53T PD mouse brain after intranasal gangliosides. The format is in vivo. As to conditions: intranasal 5 mg/kg/day for 28 days, 8-month-old A53T PD mice. As to the method: as §1

Test [13] concerns NSC pools in DG and SVZ. As to conditions: icv by micro-osmotic pump, 5 mg/kg/day for 7 days, GD3S-KO mouse; cited from earlier work.
The subject of test [14] is hippocampal NSC (Sox2 positive cell). The experiment in a line: SOX2 positive NSCs in hippocampus of PD mouse brain. The format is in vivo. Conditions: intranasal 5 mg/kg/day for 28 days (combination: GD3 2 weeks, then GM1 2 weeks). The protocol:
as §1

The values that follow come from US20240100076A1, “METHODS AND COMPOSITIONS FOR TREATING NEURODEGENERATIVE DISEASES” (Augusta University Research Institute, Inc., priority 2021, published 2024).

Entries after “also recorded” stand apart in the source; their conditions may differ.

Turning to monosialotetrahexosylganglioside [GM1], in test [1], the bone area result was “increased”, the bone mineral content result was “increased” and the bone mineral density entry was “increased”. Besides, in test [2], the “expression of GM2S” value is “promoted expression of GM2S”. Besides, the “TH expression (mRNA)” value in [3] is given as “dramatically increased the TH expression”. Also, the “memory function (exploration time of novel object)” value in test [4] is listed as “increased memory function”. Also, the “TH expression at substantia nigra” value in test [5] is listed as “dramatically restored TH expression”. Further, the “BrdU+/doublecortin+ (DCX+) newly generated immature neurons” value in test [6] is “increases BrdU+/doublecortin+ (DCX+) newly generated immature neurons”. In addition, the “TH expression in substantia nigra of GM2S-KO mouse” value in test [7] is reported as “restore the normal TH expression”. For the same substance, the “olfactory function (time to uncover the food pellet)” value in [8] is given as “enhance olfactory function”. The “expression and nuclear localization of Nurr1” value in test [9] is “restored”. Further, the “acetylated histone H3 on TH gene promoter (ChIP)” value in test [10] (anti-AcH3) was “augmentation of acetylated histone H3”. Further, the “recruitment of Nurr1 on the TH promoter region (ChIP)” value in test [10] (anti-Nurr1) is given as “remarkably recruited”. In test [10] (anti-Pitx3), the “recruitment of Pitx3 on the TH promoter (ChIP)” value is recorded as “also recruited Pitx3”. Moreover, in test [11], the VDAC1 expression result is “significantly enhance the expression”. The “aSyn levels / aSyn accumulation” value in test [12] is listed as “strongly inhibits; also recorded: reduced aSyn levels”.

Take monosialodihexosylganglioside [GD3]: the “NSC pools in DG and SVZ” value in [13] is “augments NSC pools in DG and SVZ”. Further, in test [1], the bone area result is given as “increased”, the bone mineral content entry is recorded as “increased” and the bone mineral density result is reported as “increased”. The “memory function (exploration time of novel object)” value in test [4] was “increased memory function”. Besides, in test [14], the “hippocampal NSC (Sox2 positive cell) number” value is “partially restored hippocampal NSC (Sox2 positive cell) number”. Besides, in [6], the “SOX2-expressing cells in DG” value was “augments self-renewal and multipotent marker, SOX2-expressing cells”. Also, in test [8], the “olfactory function (time to uncover the food pellet)” value was “could not enhance olfactory function”. Further, the VDAC1 expression result in test [11] was “significantly enhance the expression”. For the same substance, the “aSyn levels / aSyn accumulation” value in test [12] is “partially inhibits”.
